By IC50 is commonly meant the point on the concentration scale where inhibition reaches its midpoint. The EC50 is the concentration needed to bring the measured effect to its halfway point. The term CC50 denotes the concentration that lowers cell viability or growth by half. High values mean lower toxicity to the cells, low ones greater toxicity to the cells.

Experimental findings from patent US20170267667A1, “[…] AS NON-NUCLEOSIDE REVERSE TRANSCRIPTASE INHIBITORS FOR ANTI-HIV-1 CHEMOTHERAPY” (Purdue Research Foundation, priority 2016, published 2017) are described below.

Data set [1] addresses HIV-1 reverse transcriptase (Human immunodeficiency virus type 1 group M subtype B, UniProt P04585). As to the kind of experiment: RT inhibition assay, incorporation of [32P]GTP into poly(rC)/oligo(dG) template primer. The conditions noted are these: poly(rC):oligo(dG) as the template primer; mean of at least two experiments; read-out: IC50 inhibitory activity versus HIV-1 reverse transcriptase. Format: biochemical. The method, then: RT Inhibition Assay. Inhibition of purified recombinant reverse transcriptase was measured by the incorporation of [^32P]GTP into poly(rC)/oligo(dG) homopolymer template primers, as previously described (Cushman, M., et al., J. Med. Chem. 1996, 39, 3217-3227).

In the next data set the test system is HIV-1RF. As to the kind of experiment: XTT cytoprotection assay, HIV-1RF infection in CEM-SS cells. Format: cell-based. The conditions noted are these: for SI (CC50/EC50) CEM-SS cells: CC50/EC50 ratio, HIV-1RF in CEM-SS cells; for EC50: Human immunodeficiency virus 1, inhibition of cytopathicity of HIV-1RF in CEM-SS cells. The method, then:
(§1) In Vitro Antiviral Assay. Evaluation of the antiviral activity of compounds against HIV- 1RF infection in CEM-SS cells was performed using the XTT cytoprotection assay, as previously described (Buckheit, R. W. Jr., et al., Antiviral Res. 1995, 26, 117-132). Evaluation of the antiviral activity of compounds against HIV-1IIIB and HIV-2ROD in MT-4 cells was performed using the MTT assay, as previously described (Rice, W. G. and Bader, J. P., Adv. Pharmacol. (San Diego) 1995, 33, 389-438).
(In general: Tetrazolium assays rely on reduction of a dye to a coloured formazan, in cell work by metabolically active cells.)

Data set [2] in a line: Cytotoxicity for mock-infected CEM-SS cells. The conditions noted are these: human. Format: cell-based. The method, then: as §1
(§2) Biological Results. The antiviral activities of the ADAMs were evaluated by determining their ability to inhibit the enzymatic activity of HIV-1 RT in vitro (IC50) and protect HIV-infected cells from the cytopathic effects (EC50) of two viral strains (HIV-1RF and HIV-1IIIB). The cytotoxicities (CC50) of the ADAMs were determined on CEM-SS cells and MT-4 cells.

A short description of data set [3]: Cytotoxicity for mock-infected MT-4 cells. Particulars: human. The data set is classed as cell-based. The method, then:
as §1, §2

A further data set relates to HIV-1IIIB. As to the kind of experiment: MTT assay, HIV-1IIIB in MT-4 cells. Format: cell-based. Particulars: for SI (CC50/EC50) MT-4 cells: CC50/EC50 ratio, HIV-1IIIB in MT-4 cells; for EC50: Human immunodeficiency virus 1, MT4, inhibition of cytopathicity of HIV-1IIIB in MT-4 cells. The method, then:
as §1

For `CON=C(Cl)c1cc(/C(=C\CCCc2nc(C)no2)c2cc(C)c3oc(=O)n(C)c3c2)cc(C)c1OC` [ADAM 17, 5-[(1E)-1-(3,7-Dimethyl-2-oxo-2,3-dihydro-1,3-benzoxazol-5-yl)-5-(3-methyl-1,2,4-oxadiazol-5-yl)pent-1-en-1-yl]-N,2-dimethoxy-3-methylbenzenecarboximidoyl Chloride], the 50% inhibitory concentration (IC50) in data set [1] is 4.19 µM. Besides, in the data set on HIV-1RF, the “SI (CC50/EC50) CEM-SS cells” value turned out to be 5 and the response was half-maximal at 0.51 µM (EC50). Further, in data set [2], the half-maximal cytotoxic concentration (CC50) was found to be 2.37 µM. Further, the CC50 in data set [3] is 29.4 µM. For the same molecule, in the data set on HIV-1IIIB, the “SI (CC50/EC50) MT-4 cells” value was determined as 59 and the concentration for a half-maximal effect (EC50) was 0.5 µM.

For the molecule `CON=C(Cl)c1cc(/C(=C\CCCc2nc(C)no2)c2cccc(C#N)c2)cc(C)c1OC` [ADAM 22, 5-[(1Z)-1-(3-Cyanophenyl)-5-(3-methyl-1,2,4-oxadiazol-5-yl)pent-1-en-1-yl]-N,2-dimethoxy-3-methylbenzenecarboximidoyl Chloride], the IC50 in data set [1] is more than 100 µM. Also, in the data set with HIV-1RF, the “SI (CC50/EC50) CEM-SS cells” value came to 7 and the EC50 was determined as 3.5 µM. Moreover, it took 25.5 µM to reach half-maximal cytotoxicity in data set [2] (CC50). The same molecule came in with a 50% cytotoxic concentration (CC50) in data set [3] of 110 µM. For the same molecule, in the data set with HIV-1IIIB, the “SI (CC50/EC50) MT-4 cells” value is listed as 41 and the concentration giving a half-maximal response (EC50) came out at 2.69 µM.

Turning to `CON=C(F)c1cc(/C(=C\CCCN2CCOC2=O)c2cccc(C#N)c2)cc(C)c1OC` [ADAM 12, 5-[(1Z)-1-(3-Cyanophenyl)-5-(2-oxo-1,3-oxazolidin-3-yl)pent-1-en-1-yl]-N,2-dimethoxy-3-methylbenzenecarboximidoyl Fluoride], the IC50 in data set [1] is more than 100 µM. Moreover, the EC50 in the data set on HIV-1RF was more than 100 µM; in the data set on HIV-1IIIB, more than 1.66 µM. The CC50 in data set [2] and in data set [3] was 1.66 µM each time.

`CON=C(F)c1cc(/C(=C\CCCN2CCOC2=O)c2cc(C)c3onc(OC)c3c2)cc(C)c1OC` [ADAM 9, N,2-Dimethoxy-5-[(1Z)-1-(3-methoxy-7-methyl-1,2-benzoxazol-5-yl)-5-(2-oxo-1,3-oxazolidin-3-yl)pent-1-en-1-yl]-3-methylbenzenecarboximidoyl Fluoride]: the IC50 in data set [1] is 46.7 µM. For the same molecule, the EC50 was more than 100 µM with HIV-1RF and more than 26.1 µM in the data set on HIV-1IIIB. In addition, the cytotoxic concentration (CC50) in data set [2] turned out to be 17.8 µM; in data set [3] it was 26.1 µM.

For `CON=C(F)c1cc(/C(=C\CCCc2nnc(C)o2)c2ccc(C#N)cc2)cc(C)c1OC` [ADAM 13, 5-[(1Z)-1-(4-Cyanophenyl)-5-(5-methyl-1,3,4-oxadiazol-2-yl)pent-1-en-1-yl]-N,2-dimethoxy-3-methylbenzenecarboximidoyl Fluoride], in data set [1], the half-inhibitory concentration (IC50) was 44.4 µM. The EC50 in the data set with HIV-1RF is more than 100 µM; in the data set with HIV-1IIIB, not below 9 µM. The cytotoxic concentration (CC50) was found to be 6.7 µM in data set [2] and 11.4 µM in data set [3]. The “SI (CC50/EC50) MT-4 cells” value in the data set on HIV-1IIIB is recorded as “≦1”.

Consider `CON=C(F)c1cc(/C(=C\CCCN2CCOC2=O)c2cc(C)c3oc(=O)n(C)c3c2)cc(C)c1OC` [ADAM 6, 5-[(1E)-1-(3,7-Dimethyl-2-oxo-2,3-dihydro-1,3-benzoxazol-5-yl)-5-(2-oxo-1,3-oxazolidin-3-yl)pent-1-en-1-yl]-N,2-dimethoxy-3-methylbenzenecarboximidoyl Fluoride], for which the half-maximal inhibitory concentration (IC50) in data set [1] amounted to 2.37 µM. Moreover, the EC50 in the data set on HIV-1RF is more than 100 µM; with HIV-1IIIB, more than 7.53 µM. Besides, the results for the CC50 in data set [2] and in data set [3] were 5.04 µM and 7.53 µM, respectively.

As to `CON=C(F)c1cc(/C(=C\CCCc2nc(C)no2)c2cccc(C#N)c2)cc(C)c1OC` [ADAM 11, 5-[(1Z)-1-(3-Cyanophenyl)-5-(3-methyl-1,2,4-oxadiazol-5-yl)pent-1-en-1-yl]-N,2-dimethoxy-3-methylbenzenecarboximidoyl Fluoride], in data set [1], the concentration for half-maximal inhibition (IC50) came to 5.4 µM. Moreover, the EC50 in the data set on HIV-1RF was more than 100 µM; in the data set with HIV-1IIIB, more than 4.04 µM. Besides, the CC50 in data set [2] is 3.5 µM; in data set [3], 4.04 µM.

Turning to `CON=C(F)c1cc(/C(=C\CCCc2nc(C)no2)c2ccc(C#N)cc2)cc(C)c1OC` [ADAM 14, 5-[(1Z)-1-(4-Cyanophenyl)-5-(3-methyl-1,2,4-oxadiazol-5-yl)pent-1-en-1-yl]-N,2-dimethoxy-3-methylbenzenecarboximidoyl Fluoride], the concentration for half-maximal inhibition (IC50) in data set [1] is 0.91 µM. In the data set with HIV-1RF, the “SI (CC50/EC50) CEM-SS cells” value stood at 7 and the EC50 stood at 2.03 µM. For the same molecule, the CC50 in data set [2] turned out to be 13.4 µM. Besides, the half-maximal cytotoxic concentration (CC50) in data set [3] stood at 20.4 µM. Besides, in the data set with HIV-1IIIB, the “SI (CC50/EC50) MT-4 cells” value is reported as 4 and the EC50 came to 5.55 µM.

On to `CON=C(Cl)c1cc(/C(=C\CCCc2nnc(C)o2)c2ccc(C#N)cc2)cc(C)c1OC` [ADAM 23, 5-[(1Z)-1-(4-Cyanophenyl)-5-(5-methyl-1,3,4-oxadiazol-2-yl)pent-1-en-1-yl]-N,2-dimethoxy-3-methylbenzenecarboximidoyl Chloride], for which the half-maximal inhibitory concentration (IC50) in data set [1] worked out at 32.5 µM. In addition, in the data set on HIV-1RF, the “SI (CC50/EC50) CEM-SS cells” value is on record as 7 and the concentration giving a half-maximal response (EC50) was 2.6 µM. In data set [2], this molecule gave a CC50 of 18.1 µM. The molecule also returned a CC50 in data set [3] of 30.2 µM. In the data set with HIV-1IIIB, the “SI (CC50/EC50) MT-4 cells” value amounted to 8 and the EC50 was 3.64 µM.

For the molecule `CO/N=C(\Cl)CCC/C=C(/c1ccc(C#N)cc1)c1cc(C)c(OC)c(C(=O)SC)c1` [ADAM 29, S-Methyl 5-[(1Z,6Z)-6-Chloro-1-(4-cyanophenyl)-6-(methoxyimino)hex-1-en-1-yl]-2-methoxy-3-methylbenzenecarbothioate], the concentration for half-maximal inhibition (IC50) in data set [1] stood at 12 µM. Further, in the data set with HIV-1RF, the “SI (CC50/EC50) CEM-SS cells” value was 25 and the concentration for a half-maximal effect (EC50) stood at 2.29 µM. The molecule also showed a CC50 in data set [2] of 56.5 µM. It took 109 µM to reach half-maximal cytotoxicity in data set [3] (CC50). In addition, in the data set with HIV-1IIIB, the “SI (CC50/EC50) MT-4 cells” value came to 33 and the EC50 was determined as 3.26 µM.

With `CON=C(Cl)c1cc(/C(=C\CCCc2nc(C)no2)c2cc(C)c3onc(OC)c3c2)cc(C)c1OC` [ADAM 20, N,2-Dimethoxy-5-[(1Z)-1-(3-methoxy-7-methyl-1,2-benzoxazol-5-yl)-5-(3-methyl-1,2,4-oxadiazol-5-yl)pent-1-en-1-yl]-3-methylbenzenecarboximidoyl Chloride], the half-inhibitory concentration (IC50) in data set [1] was found to be 8.03 µM. Further, in the data set with HIV-1RF, the “SI (CC50/EC50) CEM-SS cells” value amounted to 7 and the midpoint of the response, the EC50, lay at 1.7 µM. This molecule yielded a CC50 in data set [2] of 11.4 µM. Also, it took 21.2 µM to reach half-maximal cytotoxicity in data set [3] (CC50). For the same molecule, in the data set on HIV-1IIIB, the “SI (CC50/EC50) MT-4 cells” value came out at 5 and the EC50 was determined as 4.21 µM.

For `CON=C(Cl)c1cc(/C(=C\CCCc2nnc(C)o2)c2cccc(C#N)c2)cc(C)c1OC` [ADAM 21, 5-[(1Z)-1-(3-Cyanophenyl)-5-(5-methyl-1,3,4-oxadiazol-2-yl)pent-1-en-1-yl]-N,2-dimethoxy-3-methylbenzenecarboximidoyl Chloride], the half-inhibitory concentration (IC50) in data set [1] came to 33.3 µM. Moreover, in the data set on HIV-1RF, the “SI (CC50/EC50) CEM-SS cells” value was 2 and a half-maximal effect (EC50) was put at 5.8 µM. Besides, the CC50 in data set [2] was 13.2 µM. Also, the CC50 in data set [3] was 22.3 µM. Also, in the data set with HIV-1IIIB, the “SI (CC50/EC50) MT-4 cells” value was found to be 6 and the EC50 was 2.66 µM.

As for `CO/N=C(\Cl)CCC/C=C(\c1cc(C)c(OC)c(C(=O)SC)c1)c1cc(C)c2oc(=O)n(C)c2c1` [ADAM 26, S-Methyl 5-[(1E,6Z)-6-Chloro-1-(3,7-dimethyl-2-oxo-2,3-dihydro-1,3-benzoxazol-5-yl)-6-(methoxyimino)hex-1-en-1-yl]-2-methoxy-3-methylbenzenecarbothioate], the IC50 in data set [1] is 3.4 µM. For the same molecule, in the data set with HIV-1RF, the “SI (CC50/EC50) CEM-SS cells” value is reported as more than 23 and the EC50 is less than 0.32 µM. In data set [2], this molecule came in with a CC50 of 7.45 µM. The same molecule displayed a CC50 in data set [3] of 59 µM. For the same molecule, in the data set with HIV-1IIIB, the “SI (CC50/EC50) MT-4 cells” value was 109 and the 50% effective concentration (EC50) is 0.54 µM.
